# In patent US12643871B2, “Aryl formamide compound containing chiral sulfur oxide or salt thereof, preparation method, herbicidal composition and use thereof” (Qingdao Kingagroot Chemical Compound Co., Ltd., priority 2019, dated 2026):
# What was measured:
# Assay in all cases: Weeding effect in post-emergence stage
# Format in all cases: in vivo
# Conditions in all cases: 250 g/ha; 2 leaf stage; 15 days after application; fresh weight control rate
# Amaranthus retroflexus = system: Amaranthus retroflexus
# Outline: (§1)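 Greenhouse pot-grown weeds were sprayed at the 2-leaf stage, 2 weeks after sowing, with compound in acetone/Tween 80 plus 1.5 L/ha methyl oleate EC, at 500, 250, 125, 60, 30 or 15 g/ha. Fresh-weight growth control was scored 15 days later on a 0–5 scale, mean of three repeats.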
# Echinochloa crusgali = system: Echinochloa crusgali
# Outline: as §1
# Abutilon theophrasti = system: Abutilon theophrasti
# Outline: as §1
# Setaria viridis = system: Setaria viridis
# Outline: as §1
# Digitaria sanguinalis = system: Digitaria sanguinalis
# Outline: as §1
SMILES,"weeding effect in post-emergence stage, activity level (growth control rate), Amaranthus retroflexus (Amaranthus retroflexus)","weeding effect in post-emergence stage, activity level (growth control rate), Echinochloa crusgali (Echinochloa crusgali)","weeding effect in post-emergence stage, activity level (growth control rate), Abutilon theophrasti (Abutilon theophrasti)","weeding effect in post-emergence stage, activity level (growth control rate), Setaria viridis (Setaria viridis)","weeding effect in post-emergence stage, activity level (growth control rate), Digitaria sanguinalis (Digitaria sanguinalis)"
CC[S+]([O-])c1c(C(F)(F)F)ccc(C(=O)N(c2nnc(C)o2)C(C)OC(=O)OC)c1OC (mixture of isomers) [Compound 421],5 (Level 5: growth control rate is above 85%),5 (Level 5: growth control rate is above 85%),5 (Level 5: growth control rate is above 85%),5 (Level 5: growth control rate is above 85%),5 (Level 5: growth control rate is above 85%)
CCOC(=O)OC(C)N(C(=O)c1ccc(C(F)(F)F)c([S+]([O-])CC)c1OC)c1nnc(C)o1 (mixture of isomers) [Compound 422],5 (Level 5: growth control rate is above 85%),5 (Level 5: growth control rate is above 85%),5 (Level 5: growth control rate is above 85%),5 (Level 5: growth control rate is above 85%),5 (Level 5: growth control rate is above 85%)
CCC(C)[S@@+]([O-])c1c(C(F)(F)F)ccc(C(=O)Nc2nnc(C)o2)c1F (stereo partly drawn) [Compound 5],5 (Level 5: growth control rate is above 85%),5 (Level 5: growth control rate is above 85%),5 (Level 5: growth control rate is above 85%),5 (Level 5: growth control rate is above 85%),5 (Level 5: growth control rate is above 85%)
Cc1nnc(NC(=O)c2ccc(C(F)(F)F)c([S@+]([O-])C(C)(C)C)c2F)o1 [Compound 7],5 (Level 5: growth control rate is above 85%),5 (Level 5: growth control rate is above 85%),5 (Level 5: growth control rate is above 85%),4 (Level 4: growth control rate is greater than or equal to 60% and less than 85%),4 (Level 4: growth control rate is greater than or equal to 60% and less than 85%)
Cc1nnc(NC(=O)c2ccc(C(F)(F)F)c([S@+]([O-])CCC(C)C)c2F)o1 [Compound 9],5 (Level 5: growth control rate is above 85%),5 (Level 5: growth control rate is above 85%),5 (Level 5: growth control rate is above 85%),5 (Level 5: growth control rate is above 85%),5 (Level 5: growth control rate is above 85%)
CCC(C)C[S@@+]([O-])c1c(C(F)(F)F)ccc(C(=O)Nc2nnc(C)o2)c1F (stereo partly drawn) [Compound 10],5 (Level 5: growth control rate is above 85%),5 (Level 5: growth control rate is above 85%),5 (Level 5: growth control rate is above 85%),5 (Level 5: growth control rate is above 85%),5 (Level 5: growth control rate is above 85%)
Cc1nnc(NC(=O)c2ccc(C(F)(F)F)c([S@+]([O-])CC(C)(C)C)c2F)o1 [Compound 11],5 (Level 5: growth control rate is above 85%),5 (Level 5: growth control rate is above 85%),5 (Level 5: growth control rate is above 85%),5 (Level 5: growth control rate is above 85%),5 (Level 5: growth control rate is above 85%)
CCCCCC[S@@+]([O-])c1c(C(F)(F)F)ccc(C(=O)Nc2nnc(C)o2)c1F [Compound 12],5 (Level 5: growth control rate is above 85%),5 (Level 5: growth control rate is above 85%),5 (Level 5: growth control rate is above 85%),3 (Level 3: growth control rate is greater than or equal to 40% and less than 60%),3 (Level 3: growth control rate is greater than or equal to 40% and less than 60%)
CC=CC[S+]([O-])c1c(C(F)(F)F)ccc(C(=O)Nc2nnc(C)o2)c1F (stereo not drawn) [Compound 21],5 (Level 5: growth control rate is above 85%),5 (Level 5: growth control rate is above 85%),5 (Level 5: growth control rate is above 85%),5 (Level 5: growth control rate is above 85%),5 (Level 5: growth control rate is above 85%)
C#CCC[S@@+]([O-])c1c(C(F)(F)F)ccc(C(=O)Nc2nnc(C)o2)c1F [Compound 24],5 (Level 5: growth control rate is above 85%),5 (Level 5: growth control rate is above 85%),5 (Level 5: growth control rate is above 85%),5 (Level 5: growth control rate is above 85%),5 (Level 5: growth control rate is above 85%)
CC#CC[S@@+]([O-])c1c(C(F)(F)F)ccc(C(=O)Nc2nnc(C)o2)c1F [Compound 25],5 (Level 5: growth control rate is above 85%),5 (Level 5: growth control rate is above 85%),5 (Level 5: growth control rate is above 85%),5 (Level 5: growth control rate is above 85%),5 (Level 5: growth control rate is above 85%)
CCC[S@@+]([O-])c1c(C(F)(F)F)ccc(C(=O)Nc2nnc(C)o2)c1CC [Compound 538],5 (Level 5: growth control rate is above 85%),5 (Level 5: growth control rate is above 85%),5 (Level 5: growth control rate is above 85%),–,5 (Level 5: growth control rate is above 85%)
CCC[S@@+]([O-])c1c(C(F)(F)F)ccc(C(=O)Nc2nnc(C)o2)c1Br [Compound 544],5 (Level 5: growth control rate is above 85%),5 (Level 5: growth control rate is above 85%),5 (Level 5: growth control rate is above 85%),–,5 (Level 5: growth control rate is above 85%)
CCC[S@@+]([O-])c1c(C(F)(F)F)ccc(C(=O)Nc2nnc(C)o2)c1I [Compound 545],5 (Level 5: growth control rate is above 85%),5 (Level 5: growth control rate is above 85%),5 (Level 5: growth control rate is above 85%),–,5 (Level 5: growth control rate is above 85%)
CCC[S@@+]([O-])c1c(C(F)(F)F)ccc(C(=O)Nc2nnc(C)o2)c1C#N [Compound 546],5 (Level 5: growth control rate is above 85%),5 (Level 5: growth control rate is above 85%),5 (Level 5: growth control rate is above 85%),–,5 (Level 5: growth control rate is above 85%)
CCC[S@@+]([O-])c1c(C(F)(F)F)ccc(C(=O)Nc2nnc(C)o2)c1SCOC [Compound 573],5 (Level 5: growth control rate is above 85%),5 (Level 5: growth control rate is above 85%),5 (Level 5: growth control rate is above 85%),–,5 (Level 5: growth control rate is above 85%)
